Laboratory results as given in ChEMBL document CHEMBL2016566, “Melanogenesis inhibitory bisabolane-type sesquiterpenoids from the roots of Angelica koreana” (Bioorg Med Chem Lett, 2012).
Values after ≈ are worked out from the molar mass of the structure shown.

Key:
[1] = system: B16; experiment: Inhibition of alpha-MSH-stimulated melanogenesis in mouse B16 cells assessed as melanin release after 72 hrs; format: functional, cell-based; conditions: for IC50: B16, 72 h
[2] = system: B16; experiment: Cytotoxicity against mouse B16 cells assessed as cell viability; format: cell-based

Compound | IC50 [1] | Activity [2] | inhibition [1]
O=c1ccc2cc3ccoc3cc2o1 [PSORALEN] | > 200 µg/mL | – | –
OC[C@H]1O[C@@H](Oc2ccc(O)cc2)[C@H](O)[C@@H](O)[C@@H]1O [ARBUTIN] | 67.9 µg/mL (≈ 249 µM) | – | –
CO[C@@]1(/C=C/C(C)(C)O)O[C@H]2CC(C)=CC(=O)[C@H]2[C@@]1(C)O [OSTERIVOLONE A] | 1.1 µg/mL (≈ 3.71 µM) | Non-toxic | Dose-dependent effect
CO[C@@]1(C(C=C(C)C)OC(C=C(C)C)[C@]2(O)O[C@H]3CC(C)=CC(=O)[C@H]3[C@@]2(C)O)O[C@H]2CC(C)=CC(=O)[C@H]2[C@@]1(C)O (some centres undefined) [OSTERIVOLONE C] | 4.5 µg/mL (≈ 8.03 µM) | Non-toxic | Dose-dependent effect
O=c1cc(CO)occ1O [KOJIC ACID] | 5.5 µg/mL (≈ 38.7 µM) | – | –
CC(C)=C/C=C1\O[C@@H]2CC(C)=CC(=O)[C@@H]2[C@]1(C)O [BISABOLANGELONE] | 5.3 µg/mL (≈ 21.3 µM) | Non-toxic | Dose-dependent effect
COC(C)(C)/C=C/[C@]1(OC)O[C@H]2CC(C)=CC(=O)[C@H]2[C@@]1(C)O [OSTERIVOLONE B] | 5.6 µg/mL (≈ 18 µM) | Non-toxic | Dose-dependent effect
C/C=C(/C)C(=O)O[C@H]1Cc2cc3ccc(=O)oc3cc2OC1(C)C [DECURSINOL ANGELATE] | 5.8 µg/mL (≈ 17.7 µM) | Non-toxic | Dose-dependent effect
CC(C)=C/C=C1\O[C@H]2C[C@](C)(O)CC(=O)[C@H]2[C@@]1(C)O [OSTERIVOLONE D] | 1.9 µg/mL (≈ 7.13 µM) | Non-toxic | Dose-dependent effect
C=C[C@@H](O)C#CC#C[C@@H](O)/C=C\CCCCCCC [FALCARINDIOL] | 2.9 µg/mL (≈ 11.1 µM) | Non-toxic | Dose-dependent effect
